According to ChEMBL document CHEMBL1857833, “Screening and optimization of specific chemical series against human African Trypanosomiasis (HAT)”:
In brackets after ≈: the same amount, converted by molar mass. Several values for one entry are separate records, joined by “and”; a condition that tells them apart may be missing. Equal entries are not always repeated.

Experiments:
[1] = tested on: Trypanosoma brucei; experiment: DNDI: Inhibition of Human African Trypanosomiasis, SBRI 427, in vitro; assay type: functional, organism-based
[2] = DNDI: Lipophilicity measured in Chromatographic hydrophobicity index (CHI) assay, pH 7.4; assay type: physicochemical; conditions: buffer
[3] = DNDI: Solubility in phosphate buffered saline at pH7.4 measured by nephelometry at room temperature (NEPH-RT); assay type: physicochemical; conditions: pH 7.4
[4] = target: T1, MDR1 (ABCB1) (Homo sapiens, UniProt P08183); experiment: DNDI: Apparent permeability from apical to basolateral side of the MDCK cell transfected with human MDR1after 60 mins at a concentration of 3uM; assay type: ADME, cell-based, Canis lupus familiaris; conditions: dog, MDCK-MDR1
T1 sequence (P08183 whole entry): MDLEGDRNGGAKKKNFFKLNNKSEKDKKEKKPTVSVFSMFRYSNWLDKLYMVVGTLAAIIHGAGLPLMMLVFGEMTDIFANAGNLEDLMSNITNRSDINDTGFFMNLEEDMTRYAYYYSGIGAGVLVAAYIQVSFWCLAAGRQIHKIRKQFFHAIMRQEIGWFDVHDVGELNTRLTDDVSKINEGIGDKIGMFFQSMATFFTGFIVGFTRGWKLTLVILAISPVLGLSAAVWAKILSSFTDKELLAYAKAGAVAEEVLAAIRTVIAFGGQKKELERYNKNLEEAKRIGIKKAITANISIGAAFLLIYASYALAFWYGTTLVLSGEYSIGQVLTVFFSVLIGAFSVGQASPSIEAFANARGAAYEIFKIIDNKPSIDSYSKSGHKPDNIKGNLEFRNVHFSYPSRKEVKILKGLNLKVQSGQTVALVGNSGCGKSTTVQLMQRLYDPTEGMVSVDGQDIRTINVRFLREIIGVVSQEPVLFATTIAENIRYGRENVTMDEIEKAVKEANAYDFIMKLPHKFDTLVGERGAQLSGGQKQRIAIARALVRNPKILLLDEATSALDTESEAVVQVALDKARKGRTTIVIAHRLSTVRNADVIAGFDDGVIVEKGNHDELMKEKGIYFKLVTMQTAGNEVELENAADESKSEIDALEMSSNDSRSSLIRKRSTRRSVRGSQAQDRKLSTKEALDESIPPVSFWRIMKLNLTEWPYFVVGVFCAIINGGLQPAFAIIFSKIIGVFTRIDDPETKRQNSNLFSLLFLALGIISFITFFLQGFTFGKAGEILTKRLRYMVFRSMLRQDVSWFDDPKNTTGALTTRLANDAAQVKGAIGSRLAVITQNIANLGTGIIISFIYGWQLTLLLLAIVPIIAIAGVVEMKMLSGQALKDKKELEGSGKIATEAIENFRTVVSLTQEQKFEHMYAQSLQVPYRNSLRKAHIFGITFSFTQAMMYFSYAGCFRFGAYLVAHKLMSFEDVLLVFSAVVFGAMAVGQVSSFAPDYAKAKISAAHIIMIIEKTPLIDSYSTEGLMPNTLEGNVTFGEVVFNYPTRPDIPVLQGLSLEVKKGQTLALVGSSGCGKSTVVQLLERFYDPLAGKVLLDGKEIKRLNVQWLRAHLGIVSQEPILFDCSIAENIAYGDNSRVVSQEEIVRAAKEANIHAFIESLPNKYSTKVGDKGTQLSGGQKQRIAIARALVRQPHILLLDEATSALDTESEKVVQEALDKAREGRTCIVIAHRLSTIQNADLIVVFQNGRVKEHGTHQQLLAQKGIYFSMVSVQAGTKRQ

[5] = target: T1, MDR1 (ABCB1); experiment: DNDI: % of compound recovered from apical to basolateral permeability assay in MDCK cells transfected with human MDR1 after 60 mins at a concentration of 3uM in the presence of GF120918; assay type: ADME, cell-based, Canis lupus familiaris; conditions: dog, MDCK-MDR1, with GF120918 (concentration not stated)
[6] = DNDI: half-life in mouse S9 microsomes at a concentration of 1uM; assay type: ADME, subcellular, Liver, S9 fraction
[7] = DNDI: Cytotoxicity against L929 mouse fibroblasts, 72 hour.; assay type: toxicity, cell-based; conditions: mouse, L929 mouse fibroblasts
[8] = target: T1, MDR1 (ABCB1); experiment: DNDI: % of compound recovered from apical to basolateral permeability assay in MDCK cells transfected with human MDR1 after 60 mins at a concentration of 3uM; assay type: ADME, cell-based, Canis lupus familiaris; conditions: dog
[9] = mouse, microsomes, 1 µM
Description: (§2) DNDI: half life in mouse liver microsomes at a concentration of 1uM

[10] = in vitro; conditions: human, liver microsomes, t (1 / 2)
Description: DNDI: half life in human liver microsomes at a concentration of 1uM

[11] = tested on: Trypanosoma brucei; experiment: DNDI: Inhibition of Human African Trypanosomiasis, Cross 22, in vitro; assay type: functional, organism-based
[12] = mouse, microsomes, 1 µM; remark: listed apart in the source
Description: (§3) DNDI: in vitro intrinsic clearance in mouse liver microsomes at a concentration of 1uM

[13] = in vitro; conditions: human, liver microsomes, CLint in vitro
Description: DNDI: in vitro intrinsic clearance in human liver microsomes at a concentration of 1uM

[14] = DNDI: Cytotoxicity against L929 mouse fibroblasts, CYTO-SP, 24 hour; assay type: toxicity, cell-based; conditions: mouse, L929 mouse fibroblasts
[15] = tested on: Trypanosoma brucei rhodesiense; experiment: DNDI: Inhibition of Human African Trypanosomiasis (HAT), STIB 900, in vitro; assay type: functional, organism-based
[16] = tested on: Plasmodium falciparum; experiment: DNDI: Inhibition of the malaria parasite Plasmodium falciparum, in vitro; assay type: functional, organism-based; conditions: K1
[17] = DNDI: in vitro intrinsic clearance in human liver microsomes at a concentration of 10uM; assay type: ADME, Microsome
[18] = DNDI: half life in human liver microsomes at a concentration of 10uM; assay type: ADME, Microsome
[19] = in vitro; conditions: mouse, t (1 / 2)
Description: as §2

[20] = tested on: Leishmania donovani; experiment: DNDI: Inhibition of formation of Leishmania donovani (strain MHOM/ET/67/L82) axenic amastigotes, in vitro.; assay type: functional, organism-based
[21] = DNDI: Solubility in phosphate buffered saline at pH7.4 measured by optical density (turbidimetry) at room temperature (OD-RT); assay type: physicochemical; conditions: pH 7.4
[22] = DNDI: Cytotoxicity against L-6 rat myoblasts from skeletal muscle cells; assay type: toxicity, cell-based, L6; conditions: L-6 rat skeletal muscle myoblasts
[23] = in vitro; conditions: mouse
Description: as §3

[24] = DNDI: half life in mouse liver microsomes at a concentration of 10uM; assay type: ADME, Microsome
[25] = tested on: Trypanosoma cruzi; experiment: DNDI: Inhibition of Chagas Disease parasite Trypanosoma cruzi (Tulahuen LacZ, Clone C4), in vitro.; assay type: functional, organism-based
[26] = DNDI: in vitro intrinsic clearance in mouse liver microsomes at a concentration of 10uM; assay type: ADME, Microsome; conditions: read-out: CLint in vitro
[27] = tested on: Trypanosoma brucei; experiment: (§1) DNDI: Mean survival time in days (MSD) of mice after intraperitoneal injection of Human African Trypanosomiasis (HAT), EATRO 110, in vivo at 20 mg/kg/day for 4 days.; assay type: functional, Mus musculus
[28] = DNDI: % of compound remaining in mouse S9 microsomes at a concentration of 1uM after 60 mins; assay type: ADME, subcellular, Liver, S9 fraction
[29] = DNDI: % of compound remaining in rat S9 microsomes at a concentration of 1uM; assay type: ADME, subcellular, Liver, S9 fraction
[30] = tested on: Trypanosoma brucei; experiment: as §1; assay type: functional, Mus musculus; remark: listed apart in the source
[31] = tested on: Trypanosoma brucei; experiment: DNDI: Inhibition of Human African Trypanosomiasis, EATRO 110, in vitro; assay type: functional, organism-based
[32] = target: T1, MDR1 (ABCB1); experiment: DNDI: Efflux ratio for permeability from basolateral to apical side to apical to basolateral side of MDCK cells transfected with human MDR1; assay type: ADME, cell-based, Canis lupus familiaris; conditions: dog, MDCK-MDR1; read-out: Calculated Ratio
[33] = Trypanosoma brucei, SBRI 427, read-out: IC50

| SMILES | IC50 [1, 33] [µg/mL] | chromatographic logD [2] | solubility kinetic [3] [µM] | IC50 at 72 h [7] [µg/mL] | t (1 / 2) [9] | IC50 [1] | IC50 [11] [µg/mL] | CLint in vitro [12] | IC50 at 24 h [14] [µg/mL] | IC50 [15] [µg/mL] | IC50 [16] [µg/mL] | CLint in vitro [17] [µL/min/mg] | half-life at 10 µM [18] [h] | half-life at 1 µM ([19]; liver microsomes) [h] | IC50 [20] [µg/mL] | solubility kinetic [21] [µM] | IC50 [22] [µg/mL] | microsomal CLint at 1 µM ([23]; liver microsomes) [µL/min/mg] | half-life at 10 µM [24] [h] | IC50 [25] [µg/mL] | further results |
| --- | --- | --- | --- | --- | --- | --- | --- | --- | --- | --- | --- | --- | --- | --- | --- | --- | --- | --- | --- | --- | --- |
| CN(C)CCNc1cc(-c2ccccc2)nc2cc(-c3ccc(F)cc3)nn12 | 1.53 (≈ 4.08 µM) | 5.2 | 25 (≈ 9.39 µg/mL) | > 10 |  |  |  |  |  |  |  |  |  |  |  |  |  |  |  |  | Papp A→B at 1 h, 3 µM [4]: 8.84 ×10⁻⁶ cm/s; recovery at 1 h, 3 µM [5]: 70%; half-life at 1 µM [6]: > 5.83 h; recovery at 1 h, 3 µM [8]: 100% |
| CCCCOc1ccc(-c2nc(CNC3CCCCCC3)co2)cc1 | 0.38 (≈ 1.11 µM) | 5.34 | < 1 | < 3.13 | 26 min and 78 min | 0.3 µg/mL and 0.39 µg/mL | 0.4 (≈ 1.17 µM) | 32 µL/min/mg and 11 µL/min/mg | 11.7 (≈ 34.2 µM) |  |  |  |  |  |  |  |  |  |  |  | half-life at 1 µM [10]: 0.383 h; microsomal CLint at 1 µM [13]: 38 µL/min/mg |
| CCCCCC(C)NCc1coc(-c2ccc(OCCCC)cc2)n1 (stereo not drawn) | 0.38 (≈ 1.1 µM) | 5.01 |  | 1.54 (≈ 4.47 µM) | 84 min | 0.29 µg/mL and 0.22 µg/mL | 0.36 (≈ 1.04 µM) | 10 µL/min/mg | > 50 | 0.278 (≈ 0.807 µM) | 0.825 (≈ 2.39 µM) | 28 | 1.73 | 1.17 | 4.92 (≈ 14.3 µM) | 1.6 (≈ 0.551 µg/mL) | 2.66 (≈ 7.72 µM) | 12 | 3.12 | 1.5 (≈ 4.35 µM) | microsomal CLint at 10 µM [26]: 15 µL/min/mg |
| COc1ccc(/C(=N/O)Nc2cccc(C(F)(F)F)c2)cc1 |  | 3.67 | 25 (≈ 7.76 µg/mL) | 8.11 (≈ 26.1 µM) |  |  |  | 319 µL/min/mg |  |  |  |  |  | 0.05 |  |  |  |  |  |  | MSD [27]: 5 days; remaining at 1 h, 1 µM [28]: 0%; remaining at 1 µM [29]: 0%; MSD [30]: 5 days |
| COc1ccccc1CNC(CCc1ccccc1)c1nc(Cc2ccccc2)c(N2CCCCC2)o1 (stereo not drawn) | 4.41 (≈ 8.9 µM) |  | 2 (≈ 0.991 µg/mL) | 8.24 (≈ 16.6 µM) |  |  |  | 487 µL/min/mg |  |  |  |  |  | 0.0333 |  |  |  | 471 |  |  |  |
| CCCCCC(C)NCc1coc(-c2ccc(CCCC)cc2)n1 (stereo not drawn) |  | 5.51 |  | 1.48 (≈ 4.51 µM) | 81 min |  | 0.3 (≈ 0.913 µM) | 11 µL/min/mg | > 50 | 0.186 (≈ 0.566 µM) | 0.647 (≈ 1.97 µM) | 30 | 1.62 |  | 5.25 (≈ 16 µM) | 1.6 (≈ 0.526 µg/mL) | 2.31 (≈ 7.03 µM) |  | 2.98 | 2.8 (≈ 8.52 µM) | MSD [27]: 3.4 days; half-life at 1 µM ([19]; microsomes): 1.22 h; microsomal CLint at 1 µM ([23]; microsomes): 12 µL/min/mg; microsomal CLint at 10 µM [26]: 16 µL/min/mg |
| COc1cc(C)ccc1Oc1ncccc1/C(=N/O)NC1CCCCC1 | 0.25 (≈ 0.703 µM) | 4 | 25 (≈ 8.89 µg/mL) | > 10 |  | 0.15 µg/mL (≈ 0.422 µM) |  | 76 µL/min/mg | > 50 | 57.9 (≈ 163 µM) | > 5 | 19 | 2.57 | 0.183 | > 90 | 25 (≈ 8.89 µg/mL) | 76.2 (≈ 214 µM) |  | 0.633 | > 30 | logD [2]: 4.04; MSD [27]: 5.5 days; remaining at 1 h, 1 µM [28]: 18.3%; remaining at 1 µM [29]: 0.111%; IC50 [31]: 0.48 µg/mL (≈ 1.35 µM); microsomal CLint at 10 µM [26]: 76 µL/min/mg |
| Cc1cc(NCCN(C)C)n2nc(-c3cccc(F)c3)cc2n1 | > 5 | 4.09 | 100 (≈ 31.3 µg/mL) | > 10 |  |  |  |  |  |  |  |  |  |  |  |  |  |  |  |  | Papp A→B at 1 h, 3 µM [4]: 46.6 ×10⁻⁶ cm/s; recovery at 1 h, 3 µM [5]: 108%; half-life at 1 µM [6]: 0.317 h; efflux ratio [32]: 0.14; recovery at 1 h, 3 µM [8]: 97% |
| CCCCOc1ccc(-c2nc(CNC3CC(C)CC(C)(C)C3)co2)cc1 (stereo not drawn) |  |  |  | < 3.13 | 113 min | 0.39 µg/mL and 0.47 µg/mL and 1.12 µg/mL | 0.61 (≈ 1.65 µM) | 8 µL/min/mg | 20.9 (≈ 56.4 µM) |  |  |  |  | 2.33 |  |  |  | 6 |  |  |  |
